Data taken from patent US8399681B2, “Substituted aminothiazolone indazoles as estrogen related receptor-alpha modulators” (Janssen Pharmaceutica NV, priority 2009, dated 2013).

How the values were obtained:
[1] = biological target: T1, ERR1 (also known as ERR-α or ERR-1) (Homo sapiens, UniProt P11474); test: TR-FRET assay (disruption of co-activator peptide binding); format: biochemical; conditions: 6His-tagged ERR1 LBD, GST-hSRC2 co-activator polypeptide; average of 3 independent experiments
T1 sequence (P11474 193-421 limits assumed): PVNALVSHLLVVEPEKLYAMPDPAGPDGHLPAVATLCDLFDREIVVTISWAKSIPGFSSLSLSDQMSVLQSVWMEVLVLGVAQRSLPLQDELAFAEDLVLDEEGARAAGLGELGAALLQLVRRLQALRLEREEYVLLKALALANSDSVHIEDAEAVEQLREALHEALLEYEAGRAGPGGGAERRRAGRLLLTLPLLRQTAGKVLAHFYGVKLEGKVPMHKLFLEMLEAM
Summary of the method: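 His6-ERR1 LBD (6 nM) with GST-SRC-2 peptide (6 nM), anti-GST Eu cryptate (30 nM) and anti-His XL665 (7.5 nM) in Tris pH 8/KCl/DTT/BSA buffer, equilibrated 4-18 h at 25 °C. Ex 340, em 615/665 nm; hyperbolic dose-response fit, mean of 3 experiments.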

Zucker fa/fa male rats = test: Zucker fa/fa Rat Model Assay; format: in vivo; conditions: dosed orally once a day for 4 days, blood collected at day 5
Excerpt: Zucker fa/fa is a monogenic model of frank diabetes due to a mutation on the fa gene truncating the leptin receptor and preventing its interaction with its peptide hormone. This mutation results in a hyperphagic phenotype and the rodent develops obesity, hyperlipidemia, fasting hyperglycemia and insulin resistance. Zucker fa/fa male rats were received at four weeks of age and allowed to acclimate for one week. At five weeks of age the animals were single housed in cages in a temperature-controlled room with 12-hour light/dark cycle. The rats were allowed ad libitum access to water and food and throughout the study were maintained on a Purina 5008 diet. Animals were sorted based primarily on fed insulin levels and circulating triglycerides. Animals were dosed orally once a day in the morning for 4 days. The vehicle used was either 20% HPβCD (Hydroxypropyl Beta Cyclodextrin) or 15% Vitamin E/30% PEG-400 (Polyethylene Glycol 400). Fed insulin and triglycerides were measured using blood collected from the tail vein at day 5. Serum plasma samples were prepared by centrifugation in EDTA (Ethylenediaminetetraacetic acid) containing tubes, transferred into 96 well plates and stored at −80° C.

O=C1N=C(N2CCN[C@@H](CO)C2)S/C1=C\c1ccc2c(cnn2Cc2ccc(C(F)(F)F)cc2C(F)(F)F)c1 [Example 139, 5-[1-(2,4-Bis-trifluoromethyl-benzyl)-1H-indazol-5-ylmethylene]-2-(3-(R)-hydroxymethyl-piperazin-1-yl)-thiazol-4-one]
EC50 [1]: 16 nM
% Lowering Fed Insulin Levels (Zucker fa/fa male rats): 82%
% Lowering Fed Triglyceride Levels (Zucker fa/fa male rats): 58%

O=C1N=C(N2CCOC(C(=O)O)C2)S/C1=C\c1ccc2c(cnn2Cc2ccc(C(F)(F)F)cc2C(F)(F)F)c1 (stereo not drawn) [Example 188, 4-[5-({1-[2,4-Bis(trifluoromethyl)benzyl]-1H-indazol-5-yl}methylidene)-4-oxo-4,5-dihydro-1,3-thiazol-2-yl]morpholine-2-carboxylic acid]
EC50 [1]: 19.7 nM
% Lowering Fed Insulin Levels (Zucker fa/fa male rats): 81%
% Lowering Fed Triglyceride Levels (Zucker fa/fa male rats): 59%

N[C@H]1CCCN(C2=NC(=O)/C(=C/c3ccc4c(cnn4Cc4ccc(C(F)(F)F)cc4C(F)(F)F)c3)S2)C1 [Example 52, 2-(3-(S)-Amino-piperidin-1-yl)-5-[1-(2,4-bis-trifluoromethyl-benzyl)-1H-indazol-5-ylmethylene]-thiazol-4-one]
EC50 [1]: 4.5 nM
% Lowering Fed Insulin Levels (Zucker fa/fa male rats): 86%
% Lowering Fed Triglyceride Levels (Zucker fa/fa male rats): 55%

O=C1N=C(N2CC(C(=O)O)C2)S/C1=C\c1ccc2c(cnn2Cc2ccc(C(F)(F)F)cc2C(F)(F)F)c1 [Example 35, 1-{5-[1-(2,4-Bis-trifluoromethyl-benzyl)-1H-indazol-5-ylmethylene]-4-oxo-4,5-dihydro-thiazol-2-yl}-azetidine-3-carboxylic acid]
EC50 [1]: 14.3 nM
% Lowering Fed Insulin Levels (Zucker fa/fa male rats): 45%
% Lowering Fed Triglyceride Levels (Zucker fa/fa male rats): 20%

O=C1N=C(N2CCOC[C@H]2CO)S/C1=C\c1ccc2c(cnn2Cc2ccc(C(F)(F)F)cc2C(F)(F)F)c1 [Example 141, 5-[1-(2,4-Bis-trifluoromethyl-benzyl)-1H-indazol-5-ylmethylene]-2-(3(R)-hydroxymethyl-morpholin-4-yl)-thiazol-4-one]
EC50 [1]: 37 nM
% Lowering Fed Insulin Levels (Zucker fa/fa male rats): 49%
% Lowering Fed Triglyceride Levels (Zucker fa/fa male rats): 76%

O=C1N=C(N2CCC(C(=O)O)CC2)S/C1=C\c1ccc2c(cnn2Cc2ccc(Cl)cc2C(F)(F)F)c1 [Example 39, 1-{5-[1-(4-Chloro-2-trifluoromethyl-benzyl)-1H-indazol-5-ylmethylene]-4-oxo-4,5-dihydro-thiazol-2-yl}-piperidine-4-carboxylic acid]
EC50 [1]: 3.2 nM
% Lowering Fed Insulin Levels (Zucker fa/fa male rats): 58%
% Lowering Fed Triglyceride Levels (Zucker fa/fa male rats): 35%

O=C1N=C(N2CCN[C@@H](CO)C2)S/C1=C\c1ccc2c(c1)c(Cl)nn2Cc1ccc(C(F)(F)F)cc1C(F)(F)F [Example 186, 5-[1-(2,4-Bis-trifluoromethyl-benzyl)-3-chloro-1H-indazol-5-ylmethylene]-2-(3-(R)-hydroxymethyl-piperazin-1-yl)-thiazol-4-one]
EC50 [1]: 5 nM
% Lowering Fed Insulin Levels (Zucker fa/fa male rats): 75%
% Lowering Fed Triglyceride Levels (Zucker fa/fa male rats): 56%

CN(C)C(=O)CN1CCN(C2=NC(=O)/C(=C/c3ccc4c(cnn4Cc4ccc(Cl)cc4C(F)(F)F)c3)S2)CC1 [Example 72, 2-(4-{5-[1-(4-Chloro-2-trifluoromethyl-benzyl)-1H-indazol-5-ylmethylene]-4-oxo-4,5-dihydro-thiazol-2-yl}-piperazin-1-yl)-N,N-dimethyl-acetamide]
EC50 [1]: 13.3 nM
% Lowering Fed Insulin Levels (Zucker fa/fa male rats): 62%
% Lowering Fed Triglyceride Levels (Zucker fa/fa male rats): 57%

O=C1N=C(N2CCC(C(=O)O)CC2)S/C1=C\c1ccc2c(cnn2Cc2ccc(C(F)(F)F)cc2C(F)(F)F)c1 [Compound 1, 1-{5-[1-(2,4-Bis-trifluoromethyl-benzyl)-1H-indazol-5-ylmethylene]-4-oxo-4,5-dihydro-thiazol-2-yl}-piperidine-4-carboxylic acid]
EC50 [1]: 10.1 nM
% Lowering Fed Insulin Levels (Zucker fa/fa male rats): 58%
% Lowering Fed Triglyceride Levels (Zucker fa/fa male rats): 37%

CN1CCN(C2=NC(=O)/C(=C/c3ccc4c(c3)c(C#N)nn4Cc3ccc(Cl)cc3C(F)(F)F)S2)CC1 [Example 223, 1-[4-Chloro-2-(trifluoromethyl)benzyl]-5-{[2-(4-methylpiperazin-1-yl)-4-oxo-1,3-thiazol-5(4H)-ylidene]methyl}-1H-indazole-3-carbonitrile]
EC50 [1]: 13.4 nM
% Lowering Fed Insulin Levels (Zucker fa/fa male rats): 77%
% Lowering Fed Triglyceride Levels (Zucker fa/fa male rats): 85%

O=C1N=C(N2CCO[C@H](CO)C2)S/C1=C\c1ccc2c(cnn2Cc2ccc(C(F)(F)F)cc2C(F)(F)F)c1 [Example 140, 5-[1-(2,4-Bis-trifluoromethyl-benzyl)-1H-indazol-5-ylmethylene]-2-((2S)-hydroxymethyl-morpholin-4-yl)-thiazol-4-one]
EC50 [1]: 19 nM
% Lowering Fed Insulin Levels (Zucker fa/fa male rats): 59%
% Lowering Fed Triglyceride Levels (Zucker fa/fa male rats): 67%

NC1CN(C2=NC(=O)/C(=C/c3ccc4c(cnn4Cc4ccc(Cl)cc4C(F)(F)F)c3)S2)C1 [Example 98, 2-(3-Amino-azetidin-1-yl)-5-[1-(4-chloro-2-trifluoromethyl-benzyl)-1H-indazol-5-ylmethylene]-thiazol-4-one]
EC50 [1]: 15 nM
% Lowering Fed Insulin Levels (Zucker fa/fa male rats): 51%
% Lowering Fed Triglyceride Levels (Zucker fa/fa male rats): 22%

COC(=O)N[C@@H]1C[C@H](CO)N(C2=NC(=O)/C(=C/c3ccc4c(cnn4Cc4ccc(C(F)(F)F)cc4C(F)(F)F)c3)S2)C1 [Example 213, Methyl {1-[5-({1-[2,4-bis(trifluoromethyl)benzyl]-1H-indazol-5-yl}methylidene)-4-oxo-4,5-dihydro-1,3-thiazol-2-yl]-5-(R)-(hydroxymethyl)pyrrolidin-3-(R)-yl}carbamate]
EC50 [1]: 21 nM
% Lowering Fed Insulin Levels (Zucker fa/fa male rats): 42%
% Lowering Fed Triglyceride Levels (Zucker fa/fa male rats): 30%

O=C1N=C(N2CCc3c(O)noc3C2)S/C1=C\c1ccc2c(cnn2Cc2ccc(Cl)cc2C(F)(F)F)c1 [Example 197, 5-({1-[4-Chloro-2-(trifluoromethyl)benzyl]-1H-indazol-5-yl}methylidene)-2-(3-hydroxy-4,7-dihydroisoxazolo[5,4-c]pyridin-6(5H)-yl)-1,3-thiazol-4(5H)-one]
EC50 [1]: 29 nM
% Lowering Fed Insulin Levels (Zucker fa/fa male rats): 27%
% Lowering Fed Triglyceride Levels (Zucker fa/fa male rats): 2%

COCCN1CCN(C2=NC(=O)/C(=C/c3ccc4c(cnn4Cc4ccc(Cl)cc4C(F)(F)F)c3)S2)CC1 [Example 56, 5-[1-(4-Chloro-2-trifluoromethyl-benzyl)-1H-indazol-5-ylmethylene]-2-[4-(2-methoxy-ethyl)-piperazin-1-yl]-thiazol-4-one]
EC50 [1]: 15.7 nM
% Lowering Fed Insulin Levels (Zucker fa/fa male rats): 70%
% Lowering Fed Triglyceride Levels (Zucker fa/fa male rats): 68%

N[C@@H]1CCN(C2=NC(=O)/C(=C/c3ccc4c(cnn4Cc4ccc(Cl)cc4C(F)(F)F)c3)S2)C1 [Example 62, 2-(3-(R)-Amino-pyrrolidin-1-yl)-5-[1-(4-chloro-2-trifluoromethyl-benzyl)-1H-indazol-5-ylmethylene]-thiazol-4-one]
EC50 [1]: 17.3 nM
% Lowering Fed Insulin Levels (Zucker fa/fa male rats): 48%
% Lowering Fed Triglyceride Levels (Zucker fa/fa male rats): 36%

O=C1N=C(N2CCCNCC2)S/C1=C\c1ccc2c(cnn2Cc2ccc(Cl)cc2C(F)(F)F)c1 [Example 54, 5-[1-(4-Chloro-2-trifluoromethyl-benzyl)-1H-indazol-5-ylmethylene]-2-[1,4]diazepan-1-yl-thiazol-4-one]
EC50 [1]: 13.1 nM
% Lowering Fed Insulin Levels (Zucker fa/fa male rats): 60%
% Lowering Fed Triglyceride Levels (Zucker fa/fa male rats): 27%
